Measurements published in patent US20250034586A1, “METHOD FOR EDITING BANANA GENES” (Tropic Biosciences UK Limited, priority 2021, published 2025).

Experiments:
ACO1, Ma01_g11540 = experiment: Trait co-editing in selected embryos (PBE #3); assay type: cell-based, banana
Procedure: (§1) We transformed ECS as described previously in Example 6, using the new co-editing plasmids detailed in Table 11 above. Embryos were regenerated as detailed previously, either on media without selection, with 25 mg/L G418, 25 μg/L CSF or 50 μg/L CSF. Initial genotyping of all plasmids tested:
(§2) • All with CsVMV-rAPOBEC1 CBE (rAPOBEC+nCas9 (D10A) PBE from Zong et al. 2017*) and nosP-NptII • pMol_0925 (sgGFP-pNOS::Kan::tOCS-pCsVMV::nCas9PBE1::tg7-Dummy-pTaU6::sg1GFP_58-pTaU6::sg2GFP_59) • pMol_0934 (sgGFP, sgALS1-pNOS::Kan::tOCS-pCsVMV::nCas9PBE1::tg7-taU6::MaALS1sg2_2021-pTaU6::sg1GFP_58-pTaU6::sg2GFP_59) • pMol_0935 (sgGFP, sgALS2-pNOS::Kan::tOCS-pCsVMV::nCas9PBE1::tg7-taU6::MaALS2sg2_2023-pTaU6::sg1GFP_58-pTaU6::sg2GFP_59) • pMol_0926 (sgPPO2, sgALS1-pNOS::Kan::tOCS-pCsVMV::nCas9PBE1::tg7-taU6::MaALS1sg2_2021-pTaU6::sg1PPO2_2961-pTaU6::sg2PPO2_2962-pTaU6::sg3PPO2_2963) • pMol_0927 (sgPPO2, sgALS1-pNOS::Kan::tOCS-pCsVMV::nCas9PBE1::tg7-taU6::MaALS1sg2_2021-pTaU6::sg3PPO2_2963-pTaU6::sg4PPO2_2964) • pMol_0928 (sgACO1, sgALS1-pNOS::Kan::tOCS-pCsVMV::nCas9PBE1::tg7-taU6::MaALS1sg2_2021-pTaU6::sg1ACO1_2965-pTaU6::sg2ACO1_2966-pTaU6::sg3ACO1_2967) • pMol_0929 (sgPPO2, sgALS2-pNOS::Kan::tOCS-pCsVMV::nCas9PBE1::tg7-taU6::MaALS2sg2_2023-pTaU6::sg1PPO2_2961-pTaU6::sg2PPO2_2962-pTaU6::sg3PPO2_2963) • pMol_0930 (sgPPO2, sgALS2-pNOS::Kan::tOCS-pCsVMV::nCas9PBE1::tg7-taU6::MaALS2sg2_2023-pTaU6::sg3PPO2_2963-pTaU6::sg4PPO2_2964) • pMol_0931 (sgACO1, sgALS2-pNOS::Kan::tOCS-pCsVMV::nCas9PBE1::tg7-taU6::MaALS2sg2_2023-pTaU6::sg1ACO1_2965-pTaU6::sg2ACO1_2966-pTaU6::sg3ACO1_2967) ECS were left to ‘recover’ after transformation for 1 week in CS+cefo 300 mg/L. We regenerated embryos in 4 different conditions: • 1. No selection • 2. Stable G418 selection (in EDM only 2-3 months) from PBE #3 only (PBE #1/2 plasmids only have mCherry, not NptII) • 3. 25 μg/L chlorsulfuron (in EDM only 2-3 months) • 4. 50 μg/L chlorsulfuron (in EDM only 2-3 months)
(§3) gDNA from embryos and plantlets was extracted and qPCR was used to test for the presence of integrated tDNA in the plant genome. Three independent qPCRs were run on each sample with different sets of primers (listed below) spanning the tDNA, ranging from the left to right border. An additional qPCR was run on an endogenous banana gene (actin) for normalisation of Ct values. All qPCRs were run on the LightCycler® 96 System (Roche) using PowerUp™ SYBR® Green Master Mix (Thermo Fisher Scientific™).
(§4) For edit validation, amplicons for each target gene (als1, als2, ppo2, aco1) were made using Q5® High-Fidelity 2× Master Mix (New England Biolabs, NEB) using reaction settings listed below. PCR products were purified using Monarch® PCR & DNA Cleanup Kit (NEB) according to manufacturer's specifications. The amplicons were after validated by Sanger sequencing.

PPO2, Ma07_g03540 = experiment: Trait co-editing in selected embryos (PBE #3); assay type: cell-based, banana; details: for PPO2 edited embryos total: 16 embryos tested
Procedure: as §1, §2, §3, §4

In the case of COc1nc(C)nc(NC(=O)NS(=O)(=O)c2ccccc2Cl)n1 [CSF, chlorsulfuron], the “Percentage edited ACO1 embryos” value (ACO1, Ma01_g11540; 25CSF selection) is reported as 75, the “ACO1 edited embryos total” value (ACO1, Ma01_g11540; 25CSF selection, 8 embryos tested) is reported as 6 and the “Percentage edited ACO1 embryos” value (ACO1, Ma01_g11540; 50CSF selection) is reported as 100. The “ACO1 edited embryos total” value (ACO1, Ma01_g11540; 50CSF selection, 7 embryos tested) was 7, the “Percentage edited PPO2 embryos” value (PPO2, Ma07_g03540; 25CSF selection) was 37.5 and the “PPO2 edited embryos total” value (PPO2, Ma07_g03540; 25CSF selection) was 6. For the same molecule, the “Percentage edited PPO2 embryos” value (PPO2, Ma07_g03540; 50CSF selection) was 43.75 and the “PPO2 edited embryos total” value (PPO2, Ma07_g03540; 50CSF selection) was 7.
